Test results reported in patent US9346777B2, “Antiprotozoal compounds” (MediSynergics, LLC, priority 2012, dated 2016).

Tested on: T. brucei brucei
Test: T. brucei brucei growth inhibition assay (bloodstream forms, CellTiter-Glo ATP-bioluminescence)
Format: cell-based
Conditions: Trypanosoma brucei; bloodstream forms of T. brucei brucei clone 427-221a; 40 hours at 37° C.; final DMSO 0.5%; 95% confidence intervals in parentheses
Description: The growth inhibition assay for T. brucei brucei was conducted as described previously by Z. B. Mackey et al (Kenny K. H. Ang, Joseline Ratnam, Jiri Gut, Jennifer Legac, Elizabeth Hansell, Zachary B. Mackey, Katarzyna M. Skrzypczynska, Anjan Debnath, Juan C. Engel, Philip J. Rosenthal, James H. McKerrow, Michelle R. Arkin, Adam R. Renslo (2011) “Mining a Cathepsin Inhibitor Library for New Antiparasitic Drug Leads”, PLoS Neglected Tropical Diseases, 5(5):e1023). Bloodstream forms of the monomorphic T. brucei brucei clone 427-221a were grown in complete HMI-9 medium containing 10% FBS, 10% Serum Plus medium (Sigma Inc., St. Louis, Mo., USA), 50 U/mL penicillin and […] (Invitrogen) at 37° C. under a humidified atmosphere and 5% CO2. Inhibitor stocks were prepared in 100% DMSO and screened at […] for percent inhibition values or serially diluted from […] in 10% DMSO for IC50 determinations. […] of diluted parasites ([…]) in sterile Greiner 96-well flat white opaque culture plates such that the final DMSO concentration was 0.5%. The 0% inhibition control wells contained 0.5% DMSO while 100% inhibition control wells contained […] thimerosal (Sigma). After compound addition, plates were incubated for 40 hours at 37° C. At the end of the incubation period, […] of CellTiter-Glo™ reagent (Promega Inc., Madison, Wis., USA) was added to each well and plates were placed on an orbital shaker at room temperature for 2 min to induce lysis. After an additional 10 min of incubation without shaking to stabilize the signal, the ATP-bioluminescence of each well was determined using an Analyst HT plate reader (Molecular Devices, Sunnyvale, Calif., USA). Raw values were converted to log 10 and percentage inhibition calculated relative to the controls. IC50 curve fittings were performed with Prism 4 software as above. Pentamidine was used as a comparator in the assay.

SMILES | IC50 [µM]
CN(C)CCCC1(c2ccc(F)cc2)OCc2cc(C(=N)NCc3ccccc3)ccc21 (centres unmarked) [Example 4, N-benzyl-1-[3-(dimethylamino)propyl]-1-(4-fluorophenyl)-1,3-dihydro-2-benzofuran-5-carboximidamide] | 8.8
CN(C)CCCC1(c2ccc(F)cc2)OCc2cc(-c3ncc[nH]3)ccc21 (centres unmarked) [Example 7] | 1.4
CN(C)CCCC1(c2ccc(F)cc2)OCc2cc(C(=N)N)ccc21 (centres unmarked) [Example 1, 1-[3-(dimethylamino)propyl]-1-(4-fluorophenyl)-1,3-dihydro-2-benzofuran-5-carboximidamide] | 32
CN(C)CCCC1(c2ccc(F)cc2)OCc2cc(C(=N)N3CCCC3)ccc21 (centres unmarked) [Example 6, 1-[1-[3-(dimethylamino)propyl]-1-(4-fluorophenyl)-1,3-dihydro-2-benzofuran-5-yl]-1-(pyrrolidin-1-yl)methan-imine] | 24
CN(C)CCCC1(c2ccc(F)cc2)OCc2cc(C(=N)N3CCOCC3)ccc21 (centres unmarked) [Example 5, 1-[1-[3-(dimethylamino)propyl]-1-(4-fluorophenyl)-1,3-dihydro-2-benzofuran-5-yl]-1-(morpholin-4-yl)methan-imine] | 37
